Data: the NIST ThermoML archive (doi:10.1021/je201289w)

Key:
[1] = refractive index (Na D-line) (dimensionless); settings: 101.33 kPa, Liquid, Standard Abbe refractometry
[2] = 101.33 kPa, Liquid, Vibrating tube method

CCCCn1cc[n+](C)c1.O=S(=O)([N-]S(=O)(=O)C(F)(F)C(F)(F)C(F)(F)C(F)(F)F)C(F)(F)C(F)(F)C(F)(F)C(F)(F)F
Settings | mass density, [2] [kg/m3] | refractive index, [1]
283.15 K | 1629.5 | 1.39249
288.15 K | 1623.4 | 1.39104
293.15 K | 1617.3 | 1.38955
298.15 K | 1611.1 | 1.38807
303.15 K | 1605 | 1.38662
308.15 K | 1599.1 | 1.38516
313.15 K | 1593.2 | 1.38367
318.15 K | 1587.4 | 1.38222
323.15 K | 1581.6 | 1.38078
328.15 K | 1575.8 | 1.3793
333.15 K | 1570 | 1.37783
338.15 K | 1564.2 | 1.37638
343.15 K | 1558.4 | 1.37496
348.15 K | 1552.6 | 1.3735
353.15 K | 1546.8 | 1.37206

CCC[N+]1(C)CCCC1.O=S(=O)([N-]S(=O)(=O)C(F)(F)F)C(F)(F)F
Settings | mass density, [2] [kg/m3] | refractive index, [1]
283.15 K | 1441 | 1.42474
288.15 K | 1436.4 | 1.42336
293.15 K | 1431.9 | 1.42201
298.15 K | 1427.4 | 1.42064
303.15 K | 1422.8 | 1.41925
308.15 K | 1418.3 | 1.41792
313.15 K | 1413.8 | 1.41656
318.15 K | 1409.3 | 1.41519
323.15 K | 1404.8 | 1.41389
328.15 K | 1400.4 | 1.41252
333.15 K | 1396 | 1.41119
338.15 K | 1391.6 | 1.40986
343.15 K | 1387.2 | 1.40853
348.15 K | 1382.9 | 1.40718
353.15 K | 1378.6 | 1.40589

CCn1cc[n+](C)c1.O=S(=O)([N-]S(=O)(=O)C(F)(F)F)C(F)(F)F
Settings | mass density, [2] [kg/m3] | refractive index, [1]
283.15 K | 1533.8 | 1.42738
288.15 K | 1528.7 | 1.42594
293.15 K | 1523.6 | 1.42451
298.15 K | 1518.5 | 1.42309
303.15 K | 1513.4 | 1.42166
308.15 K | 1508.4 | 1.42022
313.15 K | 1503.3 | 1.41881
318.15 K | 1498.3 | 1.4174
323.15 K | 1493.3 | 1.41597
328.15 K | 1488.4 | 1.41458
333.15 K | 1483.4 | 1.41319
338.15 K | 1478.5 | 1.41177
343.15 K | 1473.6 | 1.41037
348.15 K | 1468.7 | 1.40902
353.15 K | 1463.9 | 1.4076

CCn1cc[n+](C)c1.N#CN=C=[N-] [1-ethyl-3-methylimidazolium dicyanamide]
Settings | mass density, [2] [kg/m3] | refractive index, [1]
283.15 K | 1111.4 | 1.51774
288.15 K | 1107.9 | 1.51605
293.15 K | 1104.6 | 1.51441
298.15 K | 1101.2 | 1.51278
303.15 K | 1097.9 | 1.51121
308.15 K | 1094.6 | 1.50963
313.15 K | 1091.3 | 1.50808
318.15 K | 1088 | 1.50655
323.15 K | 1084.8 | 1.50502
328.15 K | 1081.5 | 1.50351
333.15 K | 1078.3 | 1.50191
338.15 K | 1075.2 | 1.5003
343.15 K | 1072 | 1.49865
348.15 K | 1068.9 | 1.49708
353.15 K | 1065.8 | 1.49557

CCOS(=O)(=O)[O-].CCn1cc[n+](C)c1 [1-ethyl-3-methylimidazolium ethyl sulfate]
Settings | mass density, [2] [kg/m3] | refractive index, [1]
283.15 K | 1247.7 | 1.48317
288.15 K | 1244.3 | 1.48185
293.15 K | 1241 | 1.48053
298.15 K | 1237.6 | 1.47921
303.15 K | 1234.3 | 1.47789
308.15 K | 1231 | 1.47657
313.15 K | 1227.6 | 1.47528
318.15 K | 1224.3 | 1.47395
323.15 K | 1220.9 | 1.47262
328.15 K | 1217.6 | 1.4713
333.15 K | 1214.2 | 1.46994
338.15 K | 1210.9 | 1.4685
343.15 K | 1207.6 | 1.46723
348.15 K | 1204.2 | 1.46596
353.15 K | 1200.9 | 1.46468

CCn1cc[n+](C)c1.O=S(=O)([O-])O [1-ethyl-3-methylimidazolium hydrogen sulfate]
Settings | mass density, [2] [kg/m3] | refractive index, [1]
283.15 K | 1376.7 | 1.50042
288.15 K | 1373.6 | 1.49931
293.15 K | 1370.5 | 1.4982
298.15 K | 1367.4 | 1.4971
303.15 K | 1364.3 | 1.49601
308.15 K | 1361.1 | 1.49489
313.15 K | 1357.8 | 1.49379
318.15 K | 1354.6 | 1.49269
323.15 K | 1351.5 | 1.49161
328.15 K | 1348.5 | 1.49052
333.15 K | 1345.4 | 1.48944
338.15 K | 1342.4 | 1.48836
343.15 K | 1339.4 | 1.48727
348.15 K | 1336.4 | 1.48623
353.15 K | 1333.4 | 1.48512

CCn1cc[n+](C)c1.CS(=O)(=O)[O-] [1-ethyl-3-methylimidazolium methanesulfonate]
Settings | mass density, [2] [kg/m3] | refractive index, [1]
283.15 K | 1252 | 1.49994
288.15 K | 1248.4 | 1.49855
293.15 K | 1245 | 1.49718
298.15 K | 1241.6 | 1.49582
303.15 K | 1238.2 | 1.49444
308.15 K | 1234.9 | 1.49308
313.15 K | 1231.5 | 1.49172
318.15 K | 1228.2 | 1.49039
323.15 K | 1224.8 | 1.48905
328.15 K | 1221.5 | 1.48768
333.15 K | 1218.1 | 1.48638
338.15 K | 1214.8 | 1.48498
343.15 K | 1211.5 | 1.48367
348.15 K | 1208.1 | 1.4823
353.15 K | 1204.8 | 1.48095

CCn1cc[n+](C)c1.N#C[B-](C#N)(C#N)C#N [1-ethyl-3-methylimidazolium tetracyanoborate]
Settings | mass density, [2] [kg/m3] | refractive index, [1]
283.15 K | 1041 | 1.45284
288.15 K | 1037 | 1.45108
293.15 K | 1032.9 | 1.44936
298.15 K | 1028.9 | 1.44763
303.15 K | 1024.9 | 1.44592
308.15 K | 1020.9 | 1.44421
313.15 K | 1016.9 | 1.44252
318.15 K | 1013 | 1.44081
323.15 K | 1009.1 | 1.43913
328.15 K | 1005.2 | 1.43745
333.15 K | 1001.3 | 1.43578
338.15 K | 997.4 | 1.43412
343.15 K | 993.6 | 1.43248
348.15 K | 989.8 | 1.43085
353.15 K | 986 | 1.42922

CCn1cc[n+](C)c1.F[B-](F)(F)F [1-ethyl-3-methylimidazolium tetrafluoroborate]
Settings | mass density, [2] [kg/m3] | refractive index, [1]
283.15 K | 1292 | 1.41546
288.15 K | 1288.2 | 1.41423
293.15 K | 1284.3 | 1.413
298.15 K | 1280.5 | 1.41177
303.15 K | 1276.7 | 1.41055
308.15 K | 1272.9 | 1.40934
313.15 K | 1269.1 | 1.4081
318.15 K | 1265.3 | 1.4069
323.15 K | 1261.6 | 1.4057
328.15 K | 1257.8 | 1.40452
333.15 K | 1254 | 1.40327
338.15 K | 1250.2 | 1.40211
343.15 K | 1246.5 | 1.40093
348.15 K | 1242.8 | 1.39975
353.15 K | 1239.2 | 1.39858

CCn1cc[n+](C)c1.N#C[S-] [1-ethyl-3-methylimidazolium thiocyanate]
Settings | mass density, [2] [kg/m3] | refractive index, [1]
283.15 K | 1124.7 | 1.556
288.15 K | 1121.7 | 1.5545
293.15 K | 1118.6 | 1.55299
298.15 K | 1115.5 | 1.55149
303.15 K | 1112.4 | 1.54999
308.15 K | 1109.4 | 1.5485
313.15 K | 1106.3 | 1.54702
318.15 K | 1103.3 | 1.54557
323.15 K | 1100.3 | 1.54409
328.15 K | 1097.3 | 1.54263
333.15 K | 1094.4 | 1.54119
338.15 K | 1091.4 | 1.53973
343.15 K | 1088.4 | 1.53831
348.15 K | 1085.5 | 1.53687
353.15 K | 1082.6 | 1.53545
